Laboratory results published in PMC9742383, “From tryptamine to the discovery of efficient multi-target directed ligands against cholinesterase-associated neurodegenerative disorders” (Frontiers in Pharmacology, 2022).
Where two headings read alike, the source gives them in different places.

Assays:
[1] = molecular target: BuChE (Equus caballus, UniProt P81908); assay: Ellman colorimetric assay; type: biochemical; parameters: gene BCHE; native enzyme from equine serum, purchased from Sigma-Aldrich
[2] = molecular target: T1, AChE (Electrophorus electricus, UniProt O42275); assay: Ellman colorimetric assay; type: biochemical
T1 construct: native enzyme, Type V-S lyophilized powder, Sigma-Aldrich

[3] = in vitro; parameters: MTT cytotoxicity, absorbance at 570 nm, HT-22 mouse hippocampal neuronal cells; details: mouse, read-out: IC50 ± SD / HT-22 ^a
Description: The cell lines present in this study were purchased from the China Center for Type Collection (CCTCC, China). For cytotoxicity assay, HT-22, BV2, SH-SY5Y, HepG2, and LO2 cells were incubated in 96-well plates at the density of 5 × 10³ per well. After incubation for 12 h at 37°C, the tested compounds with the required concentrations were added to the corresponding wells and continuously incubated for 24 h at 37°C. Then, the prepared MTT (3-[4,5-dimethyl-2-thiazolyl]-2,5-diphenyl-2H-tetrazolium bromide) solution was added to each well and co-incubated for another 4 h at 37°C. Then, the supernatant was removed, and 100 μl DMSO was added to each well. The OD value of each well was detected at 570 nm using a microplate reader (Bio-Rad Laboratories, CA, United States). The IC50 values were calculated using IBM SPSS Statistics 25.0 software. All experiments were performed in triplicate, and the results were shown as the mean ± SD. In order to explore the applicability of the synthesized CTDs in neurological diseases, the neuronal cytotoxicity of the synthesized compounds was evaluated on mouse hippocampal neuronal cell line HT-22. […] In view of these CTDs endowed strong inhibition efficacy on BuChE, we preliminarily evaluated their safety range by comparing their IC50 values on cytotoxicity and BuChE inhibitory activity. […] Therefore, the series of compounds with dibenzyl groups, especially compounds bearing ring carbon alkyl chains (2f-2h) and tertiary amine residues (2j-2u) with little cytotoxicity on HT-22, can be considered as potential lead building blocks for further structure optimization to develop novel effective agents against neurological diseases.

[4] = in vitro; parameters: species or system LO2, HepG2; MTT cytotoxicity, absorbance at 570 nm; details: human, sh-sy5y; read-out: ^a IC50 ± SD (μM) / SH-SY5Y
Description: The cell lines present in this study were purchased from the China Center for Type Collection (CCTCC, China). For cytotoxicity assay, HT-22, BV2, SH-SY5Y, HepG2, and LO2 cells were incubated in 96-well plates at the density of 5 × 10³ per well. After incubation for 12 h at 37°C, the tested compounds with the required concentrations were added to the corresponding wells and continuously incubated for 24 h at 37°C. Then, the prepared MTT (3-[4,5-dimethyl-2-thiazolyl]-2,5-diphenyl-2H-tetrazolium bromide) solution was added to each well and co-incubated for another 4 h at 37°C. Then, the supernatant was removed, and 100 μl DMSO was added to each well. The OD value of each well was detected at 570 nm using a microplate reader (Bio-Rad Laboratories, CA, United States). The IC50 values were calculated using IBM SPSS Statistics 25.0 software. All experiments were performed in triplicate, and the results were shown as the mean ± SD. In order to further evaluate the applicability of the compounds with dibenzyl groups for neurological diseases, we also tested the cytotoxicity of the selected compounds (2f, 2h, 2j, 2m, 2o-2r, 2t, and 2u) bearing little toxicity on HT-22 cells, microglia cell line BV2, and human neuroblastoma cell line SH-SY5Y, which are widely used in the study of neurological diseases. […] In view of some carbamate-based ChE inhibitors reported to be hepatotoxic, we further performed the preliminary evaluation of the hepatotoxicity of the selected compounds on human normal liver cell line LO2 and human hepatocellular carcinoma cell line HepG2.

[5] = read-out: IC50 ± SD ^a / BuChE ^a
[6] = read-out: IC50 ± SD ^a / AChE ^a
[7] = ht-22 hippocampal neuronal cells

T1 sequence (O42275 24-633): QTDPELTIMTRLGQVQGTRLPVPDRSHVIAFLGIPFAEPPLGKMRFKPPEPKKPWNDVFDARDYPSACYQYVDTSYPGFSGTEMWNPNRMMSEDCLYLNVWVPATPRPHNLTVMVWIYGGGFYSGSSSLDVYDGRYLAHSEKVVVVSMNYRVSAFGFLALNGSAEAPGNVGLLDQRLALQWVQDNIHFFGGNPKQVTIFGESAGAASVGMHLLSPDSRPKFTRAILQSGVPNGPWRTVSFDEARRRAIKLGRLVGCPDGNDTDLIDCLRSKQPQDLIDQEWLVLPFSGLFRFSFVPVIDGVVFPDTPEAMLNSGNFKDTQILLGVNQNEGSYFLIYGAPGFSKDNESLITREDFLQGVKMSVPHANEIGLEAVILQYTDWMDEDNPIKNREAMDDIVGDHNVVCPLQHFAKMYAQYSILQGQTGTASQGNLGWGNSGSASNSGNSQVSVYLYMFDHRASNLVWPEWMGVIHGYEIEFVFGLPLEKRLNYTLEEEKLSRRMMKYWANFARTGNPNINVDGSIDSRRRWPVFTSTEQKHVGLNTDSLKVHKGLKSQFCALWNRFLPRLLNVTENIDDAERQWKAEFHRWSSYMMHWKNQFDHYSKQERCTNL
Chain of BuChE (P81908 whole entry): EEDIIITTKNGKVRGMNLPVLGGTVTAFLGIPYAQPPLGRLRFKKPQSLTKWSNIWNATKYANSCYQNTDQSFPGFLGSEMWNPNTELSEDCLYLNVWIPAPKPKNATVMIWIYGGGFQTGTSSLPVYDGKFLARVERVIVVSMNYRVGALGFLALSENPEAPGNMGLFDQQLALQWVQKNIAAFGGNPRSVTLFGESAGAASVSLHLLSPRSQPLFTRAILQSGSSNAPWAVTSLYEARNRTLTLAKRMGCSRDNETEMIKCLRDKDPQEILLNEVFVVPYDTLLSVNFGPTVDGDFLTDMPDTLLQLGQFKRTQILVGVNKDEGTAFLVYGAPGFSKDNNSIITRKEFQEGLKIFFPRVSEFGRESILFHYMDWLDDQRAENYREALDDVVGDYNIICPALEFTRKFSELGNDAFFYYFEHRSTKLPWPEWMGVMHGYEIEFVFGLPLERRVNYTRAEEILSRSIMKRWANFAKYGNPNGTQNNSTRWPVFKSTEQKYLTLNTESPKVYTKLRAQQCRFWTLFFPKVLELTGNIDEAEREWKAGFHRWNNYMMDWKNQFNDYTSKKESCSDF

| Structure (SMILES) | IC50 [1, 5] | IC50 [2, 6] | CC50 at 24 h [3, 7] | IC50 ([1]; read-out: IC50 ± SD / BuChE ^a) | IC50 ([2]; read-out: IC50 ± SD / AChE ^a) | CC50 at 24 h ([3]; ht-22) | CC50 at 24 h [4] |
| --- | --- | --- | --- | --- | --- | --- | --- |
| CN(C)C(=O)Oc1ccc2[nH]cc(CCNCc3ccccc3)c2c1 [3j, 3-(2-(benzylamino)ethyl)-1H-indol-5-yl dimethylcarbamate] | 0.132 ± 0.00359 µM | 1.91 µM | 21.7 ± 0.72 µM |  |  |  |  |
| CCCCN(CCCC)C(=O)Oc1ccc2[nH]cc(CCNCc3ccccc3)c2c1 [3m, 3-(2-(benzylamino)ethyl)-1H-indol-5-yl dibutylcarbamate] | 0.0974 ± 0.00853 µM | 19.8 µM | 3.87 ± 0.35 µM |  |  |  |  |
| CCCCCCCNC(=O)Oc1ccc2[nH]cc(CCNCc3ccccc3)c2c1 [3e, 3-(2-(benzylamino)ethyl)-1H-indol-5-yl heptylcarbamate] | 0.0336 ± 0.00164 µM | 1.13 µM | 6.49 ± 0.34 µM |  |  |  |  |
| CCCCCCNC(=O)Oc1ccc2[nH]cc(CCNCc3ccccc3)c2c1 [3d, 3-(2-(benzylamino)ethyl)-1H-indol-5-yl hexylcarbamate] | 0.019 ± 0.00029 µM | 2.44 µM | 16.3 ± 1.19 µM |  |  |  |  |
| O=C(Oc1ccc2[nH]cc(CCNCc3ccccc3)c2c1)N1CCCC1 [3r] | 0.0405 ± 0.00179 µM | 1.82 µM | 31.7 ± 1.64 µM |  |  |  |  |
| CCCNC(=O)Oc1ccc2[nH]cc(CCNCc3ccccc3)c2c1 [3a, 3-(2-(benzylamino)ethyl)-1H-indol-5-yl propylcarbamate] | 0.0182 ± 0.00068 µM | 1.95 µM | 31.3 ± 2.32 µM |  |  |  |  |
| O=C(Nc1ccccc1)Oc1ccc2[nH]cc(CCNCc3ccccc3)c2c1 [3i, 3-(2-(benzylamino)ethyl)-1H-indol-5-yl phenylcarbamate] | 0.11 ± 0.00522 µM | 23.3 µM | 18.4 ± 0.43 µM |  |  |  |  |
| CCCCCCNC(=O)Oc1ccc2[nH]cc(CCN(Cc3ccccc3)Cc3ccccc3)c2c1 [2d, 3-(2-(dibenzylamino)ethyl)-1H-indol-5-yl hexylcarbamate] |  |  |  | 0.00147 ± 0.00015 µM | > 100 µM | 37.6 ± 1.92 µM |  |
| CCCCNC(=O)Oc1ccc2[nH]cc(CCN(Cc3ccccc3)Cc3ccccc3)c2c1 [2b, 3-(2-(dibenzylamino)ethyl)-1H-indol-5-yl butylcarbamate] |  |  |  | 0.003 ± 0.00021 µM | > 100 µM | 40.6 ± 1.12 µM |  |
| CCCNC(=O)Oc1ccc2[nH]cc(CCN(Cc3ccccc3)Cc3ccccc3)c2c1 [2a, 3-(2-(dibenzylamino)ethyl)-1H-indol-5-yl propylcarbamate] |  |  |  | 0.0332 ± 0.00499 µM | > 100 µM | 51.58 ± 0.05 µM |  |
| O=C(Oc1ccc2[nH]cc(CCNCc3ccccc3)c2c1)N1CCC1 [3q, 3-(2-(benzylamino)ethyl)-1H-indol-5-yl azetidine-1-carboxylate] | 0.00258 ± 0.00013 µM | 0.482 ± 0.00599 µM | 57.8 ± 2.88 µM |  |  |  |  |
| CCCCCCNC(=O)Oc1ccc2[nH]cc(CCN)c2c1 [4d, 3-(2-aminoethyl)-1H-indol-5-yl hexylcarbamate] | 0.0277 ± 0.00204 µM | > 100 µM | 25.2 ± 1.37 µM |  |  |  |  |
| CCCCNC(=O)Oc1ccc2[nH]cc(CCNCc3ccccc3)c2c1 [3b, 3-(2-(benzylamino)ethyl)-1H-indol-5-yl butylcarbamate] | 0.0237 ± 0.00118 µM | 1.69 µM | 18.5 ± 0.81 µM |  |  |  |  |
| O=C(Oc1ccc2[nH]cc(CCNCc3ccccc3)c2c1)N(c1ccccc1)c1ccccc1 [3n, 3-(2-(benzylamino)ethyl)-1H-indol-5-yl diphenylcarbamate] | 0.156 ± 0.00358 µM | > 100 µM | 0.54 ± 0.03 µM |  |  |  |  |
| O=C(Oc1ccc2[nH]cc(CCN(Cc3ccccc3)Cc3ccccc3)c2c1)N1CCCCC1 [2s, 3-(2-(dibenzylamino)ethyl)-1H-indol-5-yl piperidine-1-carboxylate] |  |  |  | 0.0334 ± 0.00521 µM | > 100 µM | 42.7 ± 2.09 µM |  |
| O=C(Oc1ccc2[nH]cc(CCN(Cc3ccccc3)Cc3ccccc3)c2c1)N(c1ccccc1)c1ccccc1 [2n, 3-(2-(dibenzylamino)ethyl)-1H-indol-5-yl diphenylcarbamate] |  |  |  | 0.2623 ± 0.00248 µM | > 100 µM | > 100 µM |  |
| O=C(NC1CCCC1)Oc1ccc2[nH]cc(CCN(Cc3ccccc3)Cc3ccccc3)c2c1 [2g, 3-(2-(dibenzylamino)ethyl)-1H-indol-5-yl cyclopentylcarbamate] |  |  |  | 0.0337 ± 0.00162 µM | > 100 µM | 57.3 ± 4.3 µM |  |
| CCN(CC)C(=O)Oc1ccc2[nH]cc(CCNCc3ccccc3)c2c1 [3k, 3-(2-(benzylamino)ethyl)-1H-indol-5-yl diethylcarbamate] | 0.0725 ± 0.00655 µM | > 100 µM | 16 ± 0.39 µM |  |  |  |  |
| CN(C(=O)Oc1ccc2[nH]cc(CCNCc3ccccc3)c2c1)c1ccccc1 [3p, 3-(2-(benzylamino)ethyl)-1H-indol-5-yl methyl(phenyl)carbamate] | 0.0254 ± 0.00027 µM | 7.05 µM | 11 ± 1.12 µM |  |  |  |  |
| CON(C)C(=O)Oc1ccc2[nH]cc(CCN(Cc3ccccc3)Cc3ccccc3)c2c1 [2o, 3-(2-(dibenzylamino)ethyl)-1H-indol-5-yl methoxy(methyl)carbamate] |  |  |  | 0.00865 ± 0.00034 µM | 2.93 µM | 72.1 ± 2.23 µM | > 100 µM |
| CCCN(CCC)C(=O)Oc1ccc2[nH]cc(CCN(Cc3ccccc3)Cc3ccccc3)c2c1 [2l, 3-(2-(dibenzylamino)ethyl)-1H-indol-5-yl dipropylcarbamate] |  |  |  | 0.0159 ± 0.00055 µM | > 100 µM | 38.6 ± 0.9 µM |  |
| CON(C)C(=O)Oc1ccc2[nH]cc(CCNCc3ccccc3)c2c1 [3o, 3-(2-(benzylamino)ethyl)-1H-indol-5-yl methoxy(methyl)carbamate] | 0.0588 ± 0.00292 µM | 2.61 µM | 50.4 ± 1.07 µM |  |  |  |  |
| CCCN(CCC)C(=O)Oc1ccc2[nH]cc(CCNCc3ccccc3)c2c1 [3l, 3-(2-(benzylamino)ethyl)-1H-indol-5-yl dipropylcarbamate] | 0.044 ± 0.00184 µM | > 100 µM | 6.31 ± 0.39 µM |  |  |  |  |
| O=C(NC1CCCCC1)Oc1ccc2[nH]cc(CCNCc3ccccc3)c2c1 [3h, 3-(2-(benzylamino)ethyl)-1H-indol-5-yl cyclohexylcarbamate] | 0.0435 ± 0.00335 µM | > 100 µM | 11.6 ± 0.34 µM |  |  |  |  |
| CCCCCNC(=O)Oc1ccc2[nH]cc(CCN)c2c1 [4c, 3-(2-aminoethyl)-1H-indol-5-yl pentylcarbamate] | 0.121 ± 0.00838 µM | > 100 µM | > 100 µM |  |  |  |  |
| CCN(CC)C(=O)Oc1ccc2[nH]cc(CCN(Cc3ccccc3)Cc3ccccc3)c2c1 [2k, 3-(2-(dibenzylamino)ethyl)-1H-indol-5-yl diethylcarbamate] |  |  |  | 0.3209 ± 0.00206 µM | > 100 µM | 54.68 ± 0.42 µM |  |
| O=C(Nc1ccccc1)Oc1ccc2[nH]cc(CCN(Cc3ccccc3)Cc3ccccc3)c2c1 [2i, 3-(2-(dibenzylamino)ethyl)-1H-indol-5-yl phenylcarbamate] |  |  |  | 0.0558 ± 0.00314 µM | > 100 µM | 41.8 ± 2.31 µM |  |
| O=C(NC1CCCC1)Oc1ccc2[nH]cc(CCNCc3ccccc3)c2c1 [3g, 3-(2-(benzylamino)ethyl)-1H-indol-5-yl cyclopentylcarbamate] | 0.0136 ± 0.0007 µM | 27.2 µM | 18.2 ± 0.95 µM |  |  |  |  |
| O=C(Oc1ccc2[nH]cc(CCNCc3ccccc3)c2c1)N1CCCCCC1 [3t, 3-(2-(benzylamino)ethyl)-1H-indol-5-yl azepane-1-carboxylate] | 0.0232 ± 0.00094 µM | > 100 µM | 11.9 ± 0.39 µM |  |  |  |  |
| O=C(Oc1ccc2[nH]cc(CCNCc3ccccc3)c2c1)N1CCOCC1 [3u, 3-(2-(benzylamino)ethyl)-1H-indol-5-yl morpholine-4-carboxylate] | 0.112 ± 0.00737 µM | > 100 µM | 51.3 ± 2.55 µM |  |  |  |  |
